In data set [1] the test system is HCMV. Put plainly: HCMV plaque (focus) reduction assay. In kind it is cell-based. The following applies: Human betaherpesvirus 5; Table 1; HFF cells; read-out: 50% Inhibitory Concentration HCMV Plaque. The text has this:
(§1) The 148 strain of HSV-1 was used in most experiments and was provided by Dr. T. W. Schafer of Schering corporation. The HF strain of HSV-1 was used in selected experiments and was obtained from Dr. G. H. Cohen, University of Pennsylvania. The Towne strain, plaque-purified isolate Po, of HCMV was a gift of Dr. Mark Stinski, University of Iowa.
(§2) HCMV was titered in 24-well cluster dishes which were planted to contain 5×10^4 cells/well, grown as described above. When the cells were 70 to 80% confluent, 0.2 ml of the virus suspension was added per wall and adsorbed as described above. At least three ten-fold dilutions of each preparation were used. Following virus adsorption, the cell sheets were overlayed with 0.5% methocel (4000 CPS) in maintenance medium [MEM(E) with 1.1 gm/liter NaHCO3, 100 units/ml penicillin G, 100 μg/ml streptomycin, and 5% fetal bovine serum]. The cultures were incubated in a humidified atmosphere of 4% CO2 -96% air. Viral foci were visible 5 to 7 days after infection using at least 10-fold magnification. Cells were fixed and stained by a 10-minute exposure to a 0.1% solution of crystal violet in 20% methanol 7 to 12 days after infection. Microscopic foci were enumerated at 20-fold magnification using a Nikon Profile Projector.
(§3) The effect of compounds of the replication of HCMV has been measured using both a plaque (focus) reduction assay and a titer (yield) reduction assay. For the former, HFF cells in 24-well culture dishes were infected with approximately 50 p.f.u. of HCMV per well using the procedures detailed above. Compounds dissolved in growth medium were added in three to six selected concentrations to triplicate wells following virus adsorption. Following incubation at 37° C. for 7 to 10 days, cell sheets were fixed, stained and microscopic foci were enumerated as described above. Drug effects were calculated as a percentage of reduction in number of foci in the presence of each drug concentration compared to the number observed in the absence of drug. DHPG (ganciclovir) was used as a positive control in all experiments.
(§4) Dose-response relationships were used to compare drug effects. These were constructed by linearly regressing the percent inhibition of parameters derived in the preceding sections against log drug concentrations. The 50% inhibitory (I50) concentrations were calculated from the regression lines using the methods described by Goldstein. See Goldstein, A., Biostatistics: An Introductory Text, MacMillan, N.Y., 1964, pp. 156-161. Along with the I50 concentration for visual cytotoxicity, the averaged I50 concentrations are compared to I50 concentrations for inhibition for HCMV or HSV-1 replication. Compounds for which the ratio of cytotoxicity I50 concentrations to antiviral I50 concentrations (in vitro therapeutic index) were greater than 10, were considered for further study.

Data set [2] can be described thus: Visual cytotoxicity scoring in BSC-1 cells. In kind it is cell-based. The following applies: african green monkey, Table 1, at time of HSV-1 plaque enumeration, read-out: 50% Inhibitory Concentration Cytotoxicity BSC (visual).
From the text: Cytotoxicity produced in HFF and BSC-1 cells was estimated by visual scoring of cells not affected by virus infection in the HCMV and HSV-1 plaque reduction assays. Cytopathology was estimated at 35- and 60-fold magnification and scored on a zero to four plus basis. Wells were scored on the day of staining.
as §4

A short description of another data set: in vitro. In kind it is cell-based, human. Particulars: human, kb cells. The procedure: KB or HFF cells were planted using a Costar Transplate-96 (Costar, Cambridge, Mass.) in Costar 96-well cluster dishes at a concentration of 10,000 to 12,000 cells per well. Wells were suspended in 200 μl of medium [MDM(H) plus 0.7 gm/liter NaCHO3 supplemented with 10% calf serum] per well. After incubation of 16 to 24 hours at 37° C. in a humidified atmosphere of 4% CO2 in air, […] of medium was removed per well. One-hundred μl of medium with or without compounds in twice their final concentrations was added to each well using a Titertek Multichannel Pipette. Final concentrations of compounds ranged from 0.1 to 320 μM. Fifty μl of medium containing radioactive precursors also was added to each well to give a final concentration to 1 to 3 μCi/ml of labeled precursor. [^3 H]Thd was diluted with unlabeled dThd to give a final concentration of 3 or 6 μM.
Logarithmic cell growth occurred during this time with continual uptake of labeled precursors. At the end of the incubation period, cells were individually harvested from each well using a Skatron Cell harvester (Skatronh, Inc., Sterling, Va.). Cultures for individual wells were harvested onto filter paper and washed free of unincorporated label with nine sequential washes with 5% trichloroacetic acid, nine washes with water, and nine with ethanol using the Skatron unit. Filters were dried, circles from individual cultures were punched from the filter mat and placed into mini-vials. Liquid scintillation solution was added, and radioactivity determined in a Beckman model LS8100 liquid scintillation spectrometer. All samples were counted for 2.0 minutes each, with three rounds of counting. Counts per minute were determined following the application of statistical methods to eliminate count rates which fell outside distribution limits defined by Chauvenet's rejection criterion.
All analyses were performed in triplicate. That is, three culture wells were used per time point, radioactive precursor, and drug concentration in all experiments. Results from triplicate assays were converted to percent of control and plotted as log dose-response curves from which 50% inhibitor (I50) concentrations were interpolated. Three concentrations of vidarabine were included on all plates as a positive control.
as §4

For data set [3], the system named is HCMV. Description: HCMV titer, plaque or yield reduction. Format: cell-based, human cytomegalovirus (Towne strain) in HFF cells.
From the text: as §1, §2, §3
For titer reduction analysis, HFF cells were planted as described above in 24-well cluster dishes or in 25 cm^2 flasks. When monolayers were approximately 70% confluent, HCMV was added at a m.o.i. of 0.5 p.f.u. per cell and adsorbed as detailed above. Compounds dissolved in growth medium were added in one or one-half logarithm10 dilutions and incubation continued at 37° C. After 7 to 10 days of incubation, culture dishes or flasks were frozen at […] For titer determination, cells were thawed and then subjected to two more cycles of freezing and thawing at 37° C. Serial, one-logarithm10 dilutions of the final suspension were prepared and inoculated onto new cultures of HFF cells. Titer determination was as detailed above in part (1) (b).
as §4

[4] abbreviates: Human betaherpesvirus 5, Table 2, read-out: HCMV Titer, Plaque or Yield Reduction, 50% Inhibitory Concentration.

This note sets out measurements from patent publication US4968686A, “Acyclic pyrrolo [2,3-d]pyrimidine analogs as antiviral agents” (The Regents of The University of Michigan, priority 1989, dated 1990).

Turning to `Nc1ncnc2c1c(Cl)cn2COC(CO)CO` [UMJD 186, 4-amino-5-chloro-7-[(1,3-dihydroxy-2-propoxy)-methyl]pyrrolo[2,3-d]pyrimidine], the IC50 in the data set with HCMV [1] came to 9.8 µM. Moreover, the CC50 (in data set [2]; in the data set “in vitro”) was greater than 100 µM each time.

In the case of `OCC(CO)OCn1cc(Br)c2c(NO)ncnc21` [UMJD 299, 4-hydroxylamino-5-bromo-7-[(1,3-dihydroxy-2-propoxy)methyl]pyrrolo[2,3-d]pyrimidine], the IC50 in the data set on HCMV [1] was 1.2 µM. Moreover, in the data set “in vitro”, the CC50 came out at 357 µM. In addition, the “activity against HCMV (in words)” value with HCMV [3] is “active and nearly as potent as the 4-amino analogs”.

For the compound `Nc1ncnc2c1c(Br)cn2COCCO` [UMJD 102, 4-Amino-5-bromo-7-(2-hydroxyethoxymethyl)pyrrolo[2,3-d]-pyrimidine], the IC50 came to 3.5 µM in the data set with HCMV [1] and 3.9 µM in the data set on HCMV [3] (Human betaherpesvirus 5, read-out: HCMV Titer, Plaque or Yield Reduction, 50% Inhibitory Concentration). The CC50 in data set [2] is greater than 100 µM; in “in vitro” it was 100 µM. For the same compound, in the data set on HCMV [3], the “activity against HCMV (in words)” value was “active”.

`Nc1ncnc2c1c(Cl)cn2COCCO` [UMJD 100, 4-Amino-5-chloro-7-(2-hydroxyethoxymethyl)pyrrolo[2,3-d]-pyrimidine]: the IC50 in the data set with HCMV [1] was found to be 22 µM; in the data set with HCMV [3] (setting [4]), 16 µM. Besides, the CC50 in data set [2] was greater than 100 µM; in the data set “in vitro” it was 350 µM. For the same compound, in the data set on HCMV [3], the “activity against HCMV (in words)” value is listed as “active”.

Regarding `Nc1nc2c(ncn2COCCO)c(=O)[nH]1` [Acyclovir, reference compound], the IC50 with HCMV [1] and in the data set on HCMV [3] (setting [4]) was 63 µM each time. The CC50 (in data set [2]; in “in vitro”) was greater than 100 µM in each case. Further, the “activity against HCMV (in words)” value in the data set with HCMV [3] is given as “only modest activity”.

Regarding `Nc1nc(O)c2ncn(COC(CO)CO)c2n1` [Ganciclovir (DHPG), reference compound], the IC50 with HCMV [1] amounted to 8.7 µM; with HCMV [3] (setting [4]), 8.8 µM. Besides, the CC50 was greater than 100 µM in data set [2] and 1000 µM in the data set “in vitro”.

In the case of `Nc1ncnc2c1c(Br)cn2COC(CO)CO` [UMJD 183, 4-amino-5-bromo-7-[(1,3-dihydroxy-2-propoxy)methyl]-pyrrolo[2,3-d]pyrimidine], the IC50 in the data set on HCMV [1] came out at 1.6 µM. Moreover, the values for the CC50 (in data set [2]; in “in vitro”) were greater than 100 µM and 25 µM, respectively. In addition, the “activity against HCMV (in words)” value in the data set on HCMV [3] was “most active”.

As to `Nc1ncnc2c1c(I)cn2COCCO` [UMJD 104, 4-Amino-5-iodo-7-(2-hydroxyethoxymethyl)pyrrolo[2,3-d]-pyrimidine], the IC50 with HCMV [1] and in the data set on HCMV [3] (setting [4]) was 24 µM each time. Moreover, the values for the CC50 (in data set [2]; in the data set “in vitro”) were greater than 100 µM and 94 µM, respectively. In addition, in the data set on HCMV [3], the “activity against HCMV (in words)” value is on record as “active”.
